The values that follow come from patent US20150272922A1, “Compounds for Reducing Glucocorticoids, and Methods of Treatment Thereof” (BIONICHE LIFE SCIENCES INC., priority 2012, published 2015).

In brackets after ≈: the same amount, converted by molar mass. Where two headings read alike, the source gives them in different places.

The test system of this assay is trout head kidney tissue. As to the kind of experiment: Cortisol lowering activity in trout head kidney slice model (ACTH-stimulated cortisol release). Type of assay: cell-based, rainbow trout (Oncorhynchus mykiss). The following applies: for effect on cortisol production: 60 μg/ml, ACTH 1 U/ml; for EC50: Oncorhynchus mykiss; for concentration dependence of effect on cortisol production: ACTH 1 U/mL. How it is done:
Head kidney tissue was isolated using a modified method as described by Conde-Sieira et al. (2013). Fish were anaesthetized with benzocaine (30-35 mg/L), blood was removed from the caudal vein using a 3 mL heparinized syringe and the fish euthanized by spinal transection. The vasculature was perfused through the post-cardinal vein with 40 mL of modified Hanks' medium (92.56 mM NaCl, 3.63 mM KCl, 0.55 mM MgSO4, 0.4 mM KH2PO4, 0.23 Na2HPO4, 7.5 mM Hepes, 2.81 mM NaHCO3, 0.85 mM CaCl2, 0.03% (w/v) bovine albumin serum) containing EGTA (1 mM final) adjusted to pH 7.64. The entire head kidney was removed from the trout and transferred to a 15 mL chilled glass petri dish containing modified Hanks' medium (pH 7.15). The tissue was weighed then transferred to a 35 mL chilled glass petri dish containing […] modified Hanks' medium per gram of tissue supplemented with MEM amino acid solution (50×; 2 mL/100 mL medium; Sigma—M5550), MEM non-essential amino acid solution (100×; 1 mL/100 mL medium; Sigma˜M7145) and Antibiotic-Antimycotic (100×; 1 mL/100 mL medium; Life Technologies˜15240). The tissue was chopped finely with a razor blade then separated further using a rubber policeman. The tissue was incubated at 13° C. with gentle agitation for 1.5 h to ensure basal levels of cortisol release. Optimal incubation times were determined in previous experiments (Conde-Sieira et al., 2013).
Following the 1.5 h pre-incubation, tissue was placed in 48-well culture plates (approximately 25 mg tissue pre well) along with a final volume of 250 μL modified Hanks' medium. There were two wells for each compound treatment; one control (−ACTH) and one stimulated (+ACTH) that were conducted simultaneously. Tissues were incubated with compounds of the disclosure (60 μg/mL) initiated at the same time as determined in previous experiments (Mullally et al., 2012) for 60 min at 13° C. with gentle agitation and stimulated with 1 U/mL ACTH (Sigma-Aldrich). The compounds were dissolved in ethanol and DMSO (final concentration of DMSO: 0.3% v/v, ethanol 1% v/v) by vortexing for 1 min and sonication for 30 s if the compound was not fully dissolved (determined by visual inspection). After incubation, tissue and supernatant were collected and transferred to pre-weighed 1.5 mL conical plastic tubes and centrifuged (14 000 RCF, 10 min). The supernatant was collected and transferred into a new 1.5 mL conical plastic tube and flash frozen in liquid nitrogen for subsequent cortisol assay. The mass of tissue for each sample was determined by weighing the remaining tissue in the pre-weighed tubes. Four control wells were prepared for each preparation: modified Hanks' medium, modified Hanks' medium plus ACTH (1 U/mL), DMSO/ethanol blank (0.3% v/v DMSO, 1% v/v ethanol) and DMSO/ethanol blank plus ACTH (1 U/mL).
Cortisol concentrations were assessed using a ^125I RIA kit (MP Biomedicals, Irvine, Calif., USA) as per the manufacturer's instructions and read using a Packard® Cobra™ Auto-Gamma Counter. Counts were normalized to tissue weights in each experimental well.
Data are presented as % change in ACTH-stimulated cortisol release relative to control preparation (modified Hanks' medium stimulated with ACTH) using GraphPad Prism software (GraphPad Software, Inc., La Jolla, Calif.). […] GraphPad Prism software (GraphPad Software, Inc., La Jolla, Calif.) was used to graph and calculate EC50 values by fitting a sigmoidal curve to the dose response data as well as linear regressions between Log P of compounds of the disclosure vs log cortisol responses.

Setting [1] is: read-out: calculated EC50, approximate (inhibition of cortisol production).
Setting [2] is: GraphPad Prism fit, n=3-7, FIG. 3, read-out: EC50, four parameter sigmoidal curve (ACTH-stimulated cortisol release).

The term EC50 denotes the concentration giving half of the maximal effect. In the case of `COC(=O)[C@]12CC[C@@H](C(C)O)C1C1CCC3[C@@]4(C)CC[C@H](O)C(C)(C)C4CC[C@@]3(C)[C@]1(C)CC2` (single isomer, unassigned) [Compound 1546], the “effect on cortisol production” value is on record as “lowered cortisol production”. Also, the half-maximal effective concentration (EC50) under setting [1] is ~9 mg/L (≈ 19 µM). In addition, the EC50 under setting [2] was determined as 9.5 mg/L (≈ 20 µM).

Turning to `COC(=O)[C@]12CC[C@@H](C)[C@H](C)[C@H]1C1=CCC3[C@@]4(C)C[C@@H](O)C(=O)C(C)(C)C4CC[C@@]3(C)[C@]1(C)CC2` (stereo partly drawn) [Compound 1537, Methyl 2α-hydroxy-3-oxo-urs-12-en-28-oate], the “effect on cortisol production” value is reported as “lowered cortisol production”. Further, the EC50 (ACTH-stimulated cortisol release, dose response, FIG. 3, read-out: calculated EC50, approximate (inhibition of cortisol production)) is ~28 mg/L (≈ 57.8 µM). Moreover, the EC50 under setting [2] was 28.2 mg/L (≈ 58.2 µM). The “concentration dependence of effect on cortisol production” value (dose response) was “inhibited cortisol production in a dose-dependent manner”.

As for `C=C(C)[C@@H]1CC[C@]2(C(=O)OC)CC[C@]3(C)C(CCC4[C@@]5(C)C[C@@H](O)C(=O)C(C)(C)C5CC[C@]43C)C12` (stereo partly drawn) [Compound 1521, Methyl 2α-hydroxy betulonate], the “effect on cortisol production” value is reported as “lowered cortisol production”.

For `CC(=O)[C@@H]1CC[C@]2(C(=O)O)CC[C@]3(C)[C@H](CC[C@@H]4[C@@]5(C)CC[C@H](O)C(C)(C)[C@@H]5CC[C@]43C)[C@@H]12` [Compound 1516, Platanic Acid], the “effect on cortisol production” value is reported as “lowered cortisol production”. Besides, the EC50 under setting [1] was ~9 mg/L (≈ 19.6 µM). Moreover, the EC50 under setting [2] was determined as 9.4 mg/L (≈ 20.5 µM). Also, the “concentration dependence of effect on cortisol production” value (dose response) is “inhibited cortisol production in a dose-dependent manner”.

For `C=C(C)[C@@H]1CC[C@]2(/C=C/C(=O)OCC)CC[C@]3(C)C(CCC4[C@@]5(C)CC[C@H](O)C(C)(C)C5CC[C@]43C)C12` (some centres unmarked) [Compound 1529, Vinylogous ethyl betulinate], the “effect on cortisol production” value is listed as “lowered cortisol production”. Also, under setting [2], the concentration giving a half-maximal response (EC50) came out at 116 mg/L (≈ 227 µM).
